Reference: patent US9163256B2, “Mutant receptors and their use in a nuclear receptor-based inducible gene expression system” (priority 2004, dated 2015)

Experiments:
Experiment in all cases: cell-based
[1] = target: CfEcR-DEF mutant M92E (Choristoneura fumiferana, UniProt O77255, M375E); details: mutant M92E
Summary of the method: (§1)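 Mutant CfEcR-DEF receptor and GAL4-driven luciferase reporter constructs transfected into mouse NIH3T3 cells with DMSO or ligand added; maintained 48 h at 37° C in 5% FBS, harvested 40 h after ligand addition. Dual-luciferase read-out; fold induction = RLU with ligand / RLU with DMSO.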

[2] = target: CfEcR-DEF mutant M125E (Choristoneura fumiferana, UniProt O77255, M408E); details: mutant M125E
CfEcR-DEF mutant M125E, sequence (O77255 entry or part of it M408E): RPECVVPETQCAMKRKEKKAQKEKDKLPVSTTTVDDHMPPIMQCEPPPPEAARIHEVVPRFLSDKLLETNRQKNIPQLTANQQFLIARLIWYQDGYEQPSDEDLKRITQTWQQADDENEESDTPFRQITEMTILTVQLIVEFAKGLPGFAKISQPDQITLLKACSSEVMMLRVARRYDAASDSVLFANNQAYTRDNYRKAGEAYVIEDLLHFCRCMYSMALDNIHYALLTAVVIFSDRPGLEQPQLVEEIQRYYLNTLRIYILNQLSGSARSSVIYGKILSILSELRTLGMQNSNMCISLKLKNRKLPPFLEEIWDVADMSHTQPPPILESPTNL
CfEcR-DEF mutant M125E, sequence (P28702 299-449, further chain): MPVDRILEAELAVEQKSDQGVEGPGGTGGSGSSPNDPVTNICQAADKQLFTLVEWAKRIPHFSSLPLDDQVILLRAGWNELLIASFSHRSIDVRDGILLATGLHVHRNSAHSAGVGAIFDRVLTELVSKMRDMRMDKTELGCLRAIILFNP
Summary of the method: as §1

[3] = target: CfEcR-DEF mutant R95M (Choristoneura fumiferana, UniProt O77255, R378M); details: mutant R95M
Summary of the method: as §1

[4] = target: CfEcR-DEF mutant M54W (Choristoneura fumiferana, UniProt O77255, M337W); details: mutant M54W
CfEcR-DEF mutant M54W, sequence (O77255 entry or part of it M337W): as the sequence (O77255 entry or part of it M408E) above, with M131W, E202M counted along it
CfEcR-DEF mutant M54W, sequence (P28702 299-449, further chain): as the sequence (P28702 299-449, further chain) above
Summary of the method: as §1

[5] = target: CfEcR-DEF mutant Y120W (Choristoneura fumiferana, UniProt O77255, Y403W); details: mutant Y120W
Summary of the method: as §1

[6] = target: CfEcR-DEF mutant V107I/Y127E/A110P (Choristoneura fumiferana, UniProt O77255, A393P/V390I/Y410E); details: mutant V107I/Y127E/A110P
Summary of the method: as §1

[7] = target: CfEcR-DEF mutant L234M (Choristoneura fumiferana, UniProt O77255, L517M); details: mutant L234M
Summary of the method: as §1

[8] = target: CfEcR-DEF mutant L132V (Choristoneura fumiferana, UniProt O77255, L415V); details: mutant L132V
Summary of the method: as §1

[9] = target: CfEcR-DEF mutant R95H (Choristoneura fumiferana, UniProt O77255, R378H); details: mutant R95H
CfEcR-DEF mutant R95H, sequence (P28702 299-449): as the sequence (P28702 299-449, further chain) above
CfEcR-DEF mutant R95H, sequence (O77255 entry or part of it R378H): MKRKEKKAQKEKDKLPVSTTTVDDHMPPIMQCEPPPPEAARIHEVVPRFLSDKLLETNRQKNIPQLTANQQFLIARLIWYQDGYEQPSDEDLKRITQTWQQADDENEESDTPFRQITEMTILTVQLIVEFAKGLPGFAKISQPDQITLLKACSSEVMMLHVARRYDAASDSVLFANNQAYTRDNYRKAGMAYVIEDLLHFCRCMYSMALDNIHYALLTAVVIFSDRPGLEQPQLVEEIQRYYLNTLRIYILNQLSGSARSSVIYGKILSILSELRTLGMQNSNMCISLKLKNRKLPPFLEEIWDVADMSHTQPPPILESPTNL
Summary of the method: as §1

[10] = target: CfEcR-DEF mutant T52E (Choristoneura fumiferana, UniProt O77255, T335E); details: mutant T52E
Summary of the method: as §1

[11] = target: CfEcR-DEF mutant F48L (Choristoneura fumiferana, UniProt O77255, F331L); details: mutant F48L
Summary of the method: as §1

[12] = target: CfEcR-DEF mutant V128F/A110P (Choristoneura fumiferana, UniProt O77255, A393P/V411F); details: mutant V128F/A110P
CfEcR-DEF mutant V128F/A110P, sequence (P28702 299-449, stated change not applied): as the sequence (P28702 299-449, further chain) above
CfEcR-DEF mutant V128F/A110P, sequence (O77255 entry or part of it A393P/V411F): as the sequence (O77255 entry or part of it R378H) above, with H160R, A175P, V193F counted along it
Summary of the method: as §1

[13] = target: CfEcR-DEF mutant V96W (Choristoneura fumiferana, UniProt O77255, V379W); details: mutant V96W
CfEcR-DEF mutant V96W, sequence (O77255 entry or part of it V379W): as the sequence (O77255 entry or part of it R378H) above, with H160R, V161W counted along it
CfEcR-DEF mutant V96W, sequence (P28702 299-449, further chain): as the sequence (P28702 299-449, further chain) above
Summary of the method: as §1

[14] = target: CfEcR-DEF mutant W238Y (Choristoneura fumiferana, UniProt O77255, W521Y); details: mutant W238Y
Summary of the method: as §1

[15] = target: CfEcR-DEF mutant M125L (Choristoneura fumiferana, UniProt O77255, M408L); details: mutant M125L
CfEcR-DEF mutant M125L, sequence (P28702 299-449): as the sequence (P28702 299-449, further chain) above
CfEcR-DEF mutant M125L, sequence (O77255 entry or part of it M408L): as the sequence (O77255 entry or part of it R378H) above, with H160R, M190L counted along it
Summary of the method: as §1

[16] = target: CfEcR-DEF mutant W238P (Choristoneura fumiferana, UniProt O77255, W521P); details: mutant W238P
CfEcR-DEF mutant W238P, sequence (P28702 299-449): as the sequence (P28702 299-449, further chain) above
CfEcR-DEF mutant W238P, sequence (O77255 entry or part of it W521P): as the sequence (O77255 entry or part of it R378H) above, with H160R, W303P counted along it
Summary of the method: as §1

[17] = target: CfEcR-DEF mutant N119F/V96T (Choristoneura fumiferana, UniProt O77255, N402F/V379T); details: mutant N119F/V96T
Summary of the method: as §1

[18] = target: CfEcR-DEF mutant A110E (Choristoneura fumiferana, UniProt O77255, A393E); details: mutant A110E
CfEcR-DEF mutant A110E, sequence (P28702 299-449, stated change not applied): as the sequence (P28702 299-449, further chain) above
CfEcR-DEF mutant A110E, sequence (O77255 entry or part of it A393E): as the sequence (O77255 entry or part of it M408E) above, with A187E, E202M counted along it
Summary of the method: as §1

[19] = target: CfEcR-DEF mutant I51L (Choristoneura fumiferana, UniProt O77255, I334L); details: mutant I51L
Summary of the method: as §1

[20] = target: CfEcR-DEF mutant M92L (Choristoneura fumiferana, UniProt O77255, M375L); details: mutant M92L
Summary of the method: as §1

[21] = target: CfEcR-DEF mutant M125C (Choristoneura fumiferana, UniProt O77255, M408C); details: mutant M125C
Summary of the method: as §1

[22] = relative to max fold induction of GS-E ligand

CfEcR-DEF mutant M92E, sequence (P28702 299-449): as the sequence (P28702 299-449, further chain) above
CfEcR-DEF mutant M92E, sequence (O77255 entry or part of it M375E): as the sequence (O77255 entry or part of it M408E) above, with M169E, E202M counted along it

**Q.** Which “Rel Max FI” value [1] does the source give for CC(C)CC[C@@H](O)[C@](C)(O)[C@H]1CC[C@@]2(O)C3=CC(=O)[C@@H]4C[C@@H](O)[C@@H](O)C[C@]4(C)[C@H]3CC[C@]12C [PonA, ponasterone A] here?
**A.** 0.01

**Q.** What about the EC50 ([1]; read-out: EC50) of the same molecule?
**A.** > 33 µM

**Q.** And the “Rel Max FI” value [2]?
**A.** 0

**Q.** What about the EC50 ([2]; read-out: EC50) of the same molecule?
**A.** > 33 µM

**Q.** What about the “Rel Max FI” value [3] of the same molecule?
**A.** 0

**Q.** And the EC50 ([3]; read-out: EC50)?
**A.** > 33 µM

**Q.** What about the “Rel Max FI” value [4] of the same molecule?
**A.** 0.46

**Q.** And the EC50 ([4]; read-out: EC50)?
**A.** ~10 µM

**Q.** And the “Rel Max FI” value [5]?
**A.** 0.69

**Q.** What about the EC50 ([5]; read-out: EC50) of the same molecule?
**A.** ~10 µM

**Q.** And the EC50 ([6]; read-out: EC50)?
**A.** > 33 µM

**Q.** And the “Rel Max FI” value [6, 22]?
**A.** 0.01

**Q.** What about the “Rel Max FI” value [7] of the same molecule?
**A.** 0.02

**Q.** And the EC50 ([7]; read-out: EC50)?
**A.** > 33 µM

**Q.** And the EC50 ([8]; read-out: EC50)?
**A.** 6.56 µM

**Q.** And the “Rel Max FI” value [8, 22]?
**A.** 0.57

**Q.** What about the “Rel Max FI” value [9] of the same molecule?
**A.** 0.03

**Q.** What about the EC50 ([9]; read-out: EC50) of the same molecule?
**A.** > 33 µM

**Q.** And the “Rel Max FI” value [10]?
**A.** 0

**Q.** What about the EC50 ([10]; read-out: EC50) of the same molecule?
**A.** > 33 µM

**Q.** What about the EC50 ([11]; read-out: EC50) of the same molecule?
**A.** ~10 µM

**Q.** What about the “Rel Max FI” value [11, 22] of the same molecule?
**A.** 0.59

**Q.** And the “Rel Max FI” value [12]?
**A.** 0

**Q.** What about the EC50 ([12]; read-out: EC50) of the same molecule?
**A.** > 33 µM

**Q.** And the “Rel Max FI” value [12, 22]?
**A.** 0.00

**Q.** What about the “Rel Max FI” value [13] of the same molecule?
**A.** 0.83

**Q.** And the EC50 ([13]; read-out: EC50)?
**A.** ~3.3 µM

**Q.** What about the “Rel Max FI” value [14] of the same molecule?
**A.** 0.07

**Q.** And the EC50 ([14]; read-out: EC50)?
**A.** > 33 µM

**Q.** And the “Rel Max FI” value [15]?
**A.** 0

**Q.** What about the EC50 ([15]; read-out: EC50) of the same molecule?
**A.** > 33 µM

**Q.** And the EC50 ([16]; read-out: EC50)?
**A.** ~3.3 µM

**Q.** And the “Rel Max FI” value [16, 22]?
**A.** 0.73

**Q.** What about the EC50 ([17]; read-out: EC50) of the same molecule?
**A.** ~0.3 µM

**Q.** And the “Rel Max FI” value [17, 22]?
**A.** 2.02

**Q.** What about the EC50 ([18]; read-out: EC50) of the same molecule?
**A.** ~10 µM

**Q.** And the “Rel Max FI” value [18, 22]?
**A.** 1.09

**Q.** What about the “Rel Max FI” value [19] of the same molecule?
**A.** 0.66

**Q.** And the EC50 ([19]; read-out: EC50)?
**A.** ~8 µM

**Q.** And the “Rel Max FI” value [20]?
**A.** 0

**Q.** And the EC50 ([20]; read-out: EC50)?
**A.** > 33 µM

**Q.** What about the “Rel Max FI” value [21] of the same molecule?
**A.** 0.28
